# Assay results as given in US10376520B2, “Methods for the treatment of cardiovascular disorders” (Galapagos NV, priority 2015, dated 2019).
# Tested on: RA patients
# Experiment: [HDL] determination, Study 2 (RA patients, monotherapy)
# Format: in vivo, human
# Conditions: for [HDL] Mean percentage CFB - 12 weeks results / [HDL] Median percentage CFB - 12 weeks results: 50 mg q.d.
# Text: Randomized, double-blind, placebo-controlled, multicenter, phase IIb dose finding study of Compound 1 (dosed as a [Compound 1:HCl:3H2O]) administered for 24 weeks as monotherapy to subjects with moderately to severely active rheumatoid arthritis who have an inadequate response to methotrexate alone
# Double-blind, placebo-controlled, monotherapy study in subjects with moderately to severely active RA who have an inadequate response to methotrexate (MTX) (oral or parenteral).
# 280 subjects randomized to one of 3 doses of Compound 1 (dosed as a [Compound 1:HCl:3H2O]) or to placebo, given once daily (q.d.).
# Twelve weeks of treatment with Compound 1 (dosed as a [Compound 1:HCl:3H2O]) at 50 mg, 100 mg, or 200 mg q.d.; or placebo. At Week 12, all subjects on placebo and the subjects on the 50 mg dose who have not achieved 20% improvement in swollen joint count (SJC66) and tender joint count (TJC68) will be assigned to 100 mg q.d. in a blinded fashion and will continue treatment until Week 24. Subjects in the other groups will maintain their randomized treatment until Week 24.
# This assay relies on a homogeneous enzymatic colorimetric test. In the presence of magnesium ions, dextran sulfate selectively forms water-soluble complexes with LDL, VLDL and chylomicrons which are resistant to PEG-modified enzymes.
# The cholesterol concentration of [HDL]-cholesterol is determined enzymatically by cholesterol esterase and cholesterol oxidase coupled with PEG to the amino groups (approx. 40%).
# In the presence of peroxidase, the hydrogen peroxide generated reacts with 4-amino-antipyrine and Sodium N-(2-hydroxy-3-sulfopropyl)-3,5-dimethoxyaniline (HSDA) to form a purple-blue dye. The color intensity of this dye is directly proportional to the cholesterol concentration and is measured photometrically.
# Human serum and plasma samples [HDL] determination was done on a Roche/Hitachi Cobas c 701/702 system which automatically calculate the analyte concentration of each sample. Samples containing precipitates are centrifuged before performing the assay.
# [1] = 50 mg q.d. non responders switching to 100 mg q.d. at week 12 (N = 15), week 1
# [2] = 50 mg q.d. non responders switching to 100 mg q.d. at week 12 (N = 15), week 2
# [3] = 50 mg q.d. non responders switching to 100 mg q.d. at week 12 (N = 15), week 4
# [4] = 50 mg q.d. non responders switching to 100 mg q.d. at week 12 (N = 15), week 8
# [5] = 50 mg q.d. non responders switching to 100 mg q.d. at week 12 (N = 15), week 12
# [6] = 50 mg q.d. non responders switching to 100 mg q.d. at week 12 (N = 15), week 16
# [7] = 50 mg q.d. non responders switching to 100 mg q.d. at week 12 (N = 15), week 20
# [8] = 50 mg q.d. non responders switching to 100 mg q.d. at week 12 (N = 15), week 24
# [9] = 50 mg q.d. non responders switching to 100 mg q.d. at week 12, week 1
# [10] = 50 mg q.d. non responders switching to 100 mg q.d. at week 12, week 2
# [11] = 50 mg q.d. non responders switching to 100 mg q.d. at week 12, week 4
# [12] = 50 mg q.d. responders (N = 57), week 1
# [13] = 50 mg q.d. responders (N = 57), week 2
# [14] = 50 mg q.d. responders (N = 57), week 4
# [15] = 50 mg q.d. responders (N = 57), week 8
# [16] = 50 mg q.d. responders (N = 57), week 12
# [17] = 50 mg q.d. responders (N = 57), week 16
# [18] = 50 mg q.d. responders (N = 57), week 20
# [19] = 50 mg q.d. responders (N = 57), week 24
structure (smiles),measurement,setting,value
"O=C(Nc1nc2cccc(-c3ccc(CN4CCS(=O)(=O)CC4)cc3)n2n1)C1CC1 [Compound 1, cyclopropanecarboxylic acid {5-[4-(1,1-dioxo-thiomorpholin-4-ylmethyl)-phenyl]-[1,2,4]triazolo[1,5-a]pyridin-2yl}-amide]",[HDL] Mean CFB,"50 mg q.d. (N = 72), week 1",0.033 mmol/L
same,[HDL] Median CFB,"50 mg q.d. (N = 72), week 1",0.050 mmol/L
same,[HDL] Mean CFB,"50 mg q.d. (N = 72), week 2",0.055 mmol/L
same,[HDL] Median CFB,"50 mg q.d. (N = 72), week 2",0.000 mmol/L
same,[HDL] Mean CFB,"50 mg q.d. (N = 72), week 4",0.102 mmol/L
same,[HDL] Median CFB,"50 mg q.d. (N = 72), week 4",0.100 mmol/L
same,[HDL] Mean CFB,"50 mg q.d. (N = 72), week 8",0.120 mmol/L
same,[HDL] Median CFB,"50 mg q.d. (N = 72), week 8",0.110 mmol/L
same,[HDL] Mean CFB,"50 mg q.d. (N = 72), week 12",0.078 mmol/L
same,[HDL] Median CFB,"50 mg q.d. (N = 72), week 12",0.065 mmol/L
same,[HDL] Mean CFB - 24 weeks results,[1],0.08 mmol/L
same,[HDL] Median CFB - 24 weeks results,[1],0.05 mmol/L
same,[HDL] Mean CFB - 24 weeks results,[2],0.05 mmol/L
same,[HDL] Median CFB - 24 weeks results,[2],0.04 mmol/L
same,[HDL] Mean CFB - 24 weeks results,[3],0.14 mmol/L
same,[HDL] Median CFB - 24 weeks results,[3],0.11 mmol/L
same,[HDL] Mean CFB - 24 weeks results,[4],0.09 mmol/L
same,[HDL] Median CFB - 24 weeks results,[4],0.10 mmol/L
same,[HDL] Mean CFB - 24 weeks results,[5],0.15 mmol/L
same,[HDL] Median CFB - 24 weeks results,[5],0.14 mmol/L
same,[HDL] Mean CFB - 24 weeks results,[6],0.20 mmol/L
same,[HDL] Median CFB - 24 weeks results,[6],0.21 mmol/L
same,[HDL] Mean CFB - 24 weeks results,[7],0.21 mmol/L
same,[HDL] Median CFB - 24 weeks results,[7],0.25 mmol/L
same,[HDL] Mean CFB - 24 weeks results,[8],0.30 mmol/L
same,[HDL] Median CFB - 24 weeks results,[8],0.31 mmol/L
same,[HDL] Mean percentage CFB - 24 weeks results,[9],5.25%
same,[HDL] Median percentage CFB - 24 weeks results,[9],3.68%
same,[HDL] Mean percentage CFB - 24 weeks results,[10],4.69%
same,[HDL] Median percentage CFB - 24 weeks results,[10],4.17%
same,[HDL] Mean percentage CFB - 24 weeks results,[11],10.56%
same,[HDL] Median percentage CFB - 24 weeks results,[11],10.14%
same,[HDL] Mean percentage CFB - 24 weeks results,"50 mg q.d. non responders switching to 100 mg q.d. at week 12, week 8",5.96%
same,[HDL] Median percentage CFB - 24 weeks results,"50 mg q.d. non responders switching to 100 mg q.d. at week 12, week 12",7.95%
same,[HDL] Median percentage CFB - 24 weeks results,"50 mg q.d. non responders switching to 100 mg q.d. at week 12, week 16",14.34%
same,[HDL] Median percentage CFB - 24 weeks results,"50 mg q.d. non responders switching to 100 mg q.d. at week 12, week 20",16.22%
same,[HDL] Median percentage CFB - 24 weeks results,"50 mg q.d. non responders switching to 100 mg q.d. at week 12, week 24",19.84%
same,[HDL] Mean CFB - 24 weeks results,[12],0.02 mmol/L
same,[HDL] Median CFB - 24 weeks results,[12],0.04 mmol/L
same,[HDL] Mean CFB - 24 weeks results,[13],0.05 mmol/L
same,[HDL] Median CFB - 24 weeks results,[13],0.00 mmol/L
same,[HDL] Mean CFB - 24 weeks results,[14],0.09 mmol/L
same,[HDL] Median CFB - 24 weeks results,[14],0.10 mmol/L
same,[HDL] Mean CFB - 24 weeks results,[15],0.13 mmol/L
same,[HDL] Median CFB - 24 weeks results,[15],0.14 mmol/L
same,[HDL] Mean CFB - 24 weeks results,[16],0.06 mmol/L
same,[HDL] Median CFB - 24 weeks results,[16],0.05 mmol/L
same,[HDL] Mean CFB - 24 weeks results,[17],0.08 mmol/L
same,[HDL] Median CFB - 24 weeks results,[17],0.03 mmol/L
same,[HDL] Mean CFB - 24 weeks results,[18],0.11 mmol/L
same,[HDL] Median CFB - 24 weeks results,[18],0.08 mmol/L
same,[HDL] Mean CFB - 24 weeks results,[19],0.17 mmol/L
same,[HDL] Median CFB - 24 weeks results,[19],0.10 mmol/L
same,[HDL] Mean percentage CFB - 24 weeks results,"50 mg q.d. responders, week 1",1.48%
same,[HDL] Median percentage CFB - 24 weeks results,"50 mg q.d. responders, week 1",2.78%
same,[HDL] Mean percentage CFB - 24 weeks results,"50 mg q.d. responders, week 2",4.14%
same,[HDL] Mean percentage CFB - 24 weeks results,"50 mg q.d. responders, week 4",7.26%
same,[HDL] Median percentage CFB - 24 weeks results,"50 mg q.d. responders, week 4",8.30%
same,[HDL] Mean percentage CFB - 24 weeks results,"50 mg q.d. responders, week 8",9.33%
same,[HDL] Median percentage CFB - 24 weeks results,"50 mg q.d. responders, week 8",8.81%
same,[HDL] Mean percentage CFB - 24 weeks results,"50 mg q.d. responders, week 12",4.45%
same,[HDL] Median percentage CFB - 24 weeks results,"50 mg q.d. responders, week 12",4.00%
same,[HDL] Mean percentage CFB - 24 weeks results,"50 mg q.d. responders, week 16",6.26%
same,[HDL] Median percentage CFB - 24 weeks results,"50 mg q.d. responders, week 16",2.82%
same,[HDL] Mean percentage CFB - 24 weeks results,"50 mg q.d. responders, week 20",7.61%
same,[HDL] Median percentage CFB - 24 weeks results,"50 mg q.d. responders, week 20",5.63%
same,[HDL] Mean percentage CFB - 24 weeks results,"50 mg q.d. responders, week 24",11.90%
same,[HDL] Mean percentage CFB - 12 weeks results,week 1,2.27%
same,[HDL] Median percentage CFB - 12 weeks results,week 1,3.23%
same,[HDL] Mean percentage CFB - 12 weeks results,week 2,4.26%
same,[HDL] Median percentage CFB - 12 weeks results,week 2,0.00%
same,[HDL] Mean percentage CFB - 12 weeks results,week 4,7.96%
same,[HDL] Median percentage CFB - 12 weeks results,week 4,8.70%
same,[HDL] Mean percentage CFB - 12 weeks results,week 8,8.60%
same,[HDL] Median percentage CFB - 12 weeks results,week 8,7.00%
same,[HDL] Mean percentage CFB - 12 weeks results,week 12,5.77%
same,[HDL] Median percentage CFB - 12 weeks results,week 12,4.67%
same,[HDL] Mean CFB,"100 mg q.d. (N = 70), week 1",0.085 mmol/L
same,[HDL] Mean CFB - 24 weeks results,"100 mg q.d. (N = 70), week 1",0.09 mmol/L
same,[HDL] Median CFB,"100 mg q.d. (N = 70), week 1",0.050 mmol/L
same,[HDL] Median CFB - 24 weeks results,"100 mg q.d. (N = 70), week 1",0.05 mmol/L
same,[HDL] Mean CFB,"100 mg q.d. (N = 70), week 2",0.131 mmol/L
same,[HDL] Mean CFB - 24 weeks results,"100 mg q.d. (N = 70), week 2",0.13 mmol/L
same,[HDL] Median CFB,"100 mg q.d. (N = 70), week 2",0.100 mmol/L
same,[HDL] Median CFB - 24 weeks results,"100 mg q.d. (N = 70), week 2",0.10 mmol/L
same,[HDL] Mean CFB,"100 mg q.d. (N = 70), week 4",0.194 mmol/L
same,[HDL] Mean CFB - 24 weeks results,"100 mg q.d. (N = 70), week 4",0.19 mmol/L
same,[HDL] Median CFB,"100 mg q.d. (N = 70), week 4",0.175 mmol/L
same,[HDL] Median CFB - 24 weeks results,"100 mg q.d. (N = 70), week 4",0.18 mmol/L
same,[HDL] Mean CFB,"100 mg q.d. (N = 70), week 8",0.171 mmol/L
